# Tested on: Crude diglycosidase
# Assay: Examination of pH in the conversion into isoflavone aglycons by diglycosidase using soybean materials
# Assay type: biochemical, Penicillium multicolor IAM7153
# Parameters: Decomposition efficiency of genistin family in soymilk / Decomposition efficiency of genistin family in defatted soybean / Decomposition efficiency of daidzin family in defatted soybean: concentration or dose not given beside the values
# Details: for Decomposition efficiency of daidzin family in roasted soy flour: 55° C.
# Procedure: A substrate solution of 450 μL was prepared by suspending 50 mg of each soybean material (roasted soy flour (manufactured by Fuji Shokuryo K.K.), soymilk (manufactured by Gitoh Shokuhin K.K.), defatted soybean (manufactured by Fuji Seiyu K.K.), concentrated soybean protein (manufactured by Fuji Seiyu K.K.)), and adjusting the pH to 2 to 11 with hydrochloric acid or sodium hydroxide. Each enzyme solution of pH 2–11 wherein diglycosidase activity of crude diglycosidase was adjusted to 1.88 AU/mL was added thereto in an amount of 50 μL and the whole was reacted at 55° C. at the total volume of 500 μL. To the reaction mixture was added 700 μL of ethanol after 0, 1, 3, and 6 hours of the reaction. After stirring and ultrasonication, the mixture was subjected to centrifugal separation at 15,000 rpm and 4° C. for 10 minutes. The supernatant was filtered through a filter and the existence of isoflavone glycosides and aglycon isoflavones contained in the reaction mixture was detected by HLPC (Tables 15 to 26).
# [1] = pH4.8, heat treatment of enzyme: no, reaction time 0 h
# [2] = pH4.8, heat treatment of enzyme: no, reaction time 1 h
# [3] = pH4.8, heat treatment of enzyme: no, reaction time 3 h
# [4] = pH4.8, heat treatment of enzyme: no, reaction time 6 h
# [5] = pH4.8, heat treatment of enzyme: yes, reaction time 6 h
smiles,measurement,setting,value
O=c1c(-c2ccc(O)cc2)coc2cc(O)ccc12 [daidzein],Decomposition efficiency of daidzin family in concentrated soybean protein,"pH1.6, heat treatment of enzyme: no, reaction time 0 h",3.0%
same,Decomposition efficiency of daidzin family in concentrated soybean protein,"pH1.6, heat treatment of enzyme: no, reaction time 1 h",3.3%
same,Decomposition efficiency of daidzin family in concentrated soybean protein,"pH1.6, heat treatment of enzyme: no, reaction time 3 h",3.3%
same,Decomposition efficiency of daidzin family in concentrated soybean protein,"pH1.6, heat treatment of enzyme: no, reaction time 6 h",3.4%
same,Decomposition efficiency of daidzin family in concentrated soybean protein,"pH1.6, heat treatment of enzyme: yes, reaction time 6 h",2.9%
same,Decomposition efficiency of daidzin family in roasted soy flour,"pH2, heat treatment of enzyme no, reaction time 0 h",3.5
same,Decomposition efficiency of daidzin family in roasted soy flour,"pH2, heat treatment of enzyme no, reaction time 1 h",5.4
same,Decomposition efficiency of daidzin family in roasted soy flour,"pH2, heat treatment of enzyme no, reaction time 3 h",4.8
same,Decomposition efficiency of daidzin family in roasted soy flour,"pH2, heat treatment of enzyme no, reaction time 6 h",4.5
same,Decomposition efficiency of daidzin family in roasted soy flour,"pH2, heat treatment of enzyme yes, reaction time 6 h",3.8
same,Decomposition efficiency of daidzin family in soymilk,"pH2.3, heat treatment of enzyme: no, reaction time 0 h",10.5%
same,Decomposition efficiency of daidzin family in soymilk,"pH2.3, heat treatment of enzyme: no, reaction time 1 h",45.3%
same,Decomposition efficiency of daidzin family in soymilk,"pH2.3, heat treatment of enzyme: no, reaction time 3 h",48.9%
same,Decomposition efficiency of daidzin family in soymilk,"pH2.3, heat treatment of enzyme: no, reaction time 6 h",51.5%
same,Decomposition efficiency of daidzin family in soymilk,"pH2.3, heat treatment of enzyme: yes, reaction time 6 h",10.2%
same,Decomposition efficiency of daidzin family in defatted soybean,"pH2.6, heat treatment of enzyme: no, reaction time 0 h",13.2%
same,Decomposition efficiency of daidzin family in defatted soybean,"pH2.6, heat treatment of enzyme: no, reaction time 1 h",21.3%
same,Decomposition efficiency of daidzin family in defatted soybean,"pH2.6, heat treatment of enzyme: no, reaction time 3 h",40.9%
same,Decomposition efficiency of daidzin family in defatted soybean,"pH2.6, heat treatment of enzyme: no, reaction time 6 h",42.9%
same,Decomposition efficiency of daidzin family in defatted soybean,"pH2.6, heat treatment of enzyme: yes, reaction time 6 h",13.0%
same,Decomposition efficiency of daidzin family in concentrated soybean protein,"pH2.7, heat treatment of enzyme: no, reaction time 0 h",3.0%
same,Decomposition efficiency of daidzin family in concentrated soybean protein,"pH2.7, heat treatment of enzyme: no, reaction time 1 h",40.7%
same,Decomposition efficiency of daidzin family in concentrated soybean protein,"pH2.7, heat treatment of enzyme: no, reaction time 3 h",41.6%
same,Decomposition efficiency of daidzin family in concentrated soybean protein,"pH2.7, heat treatment of enzyme: no, reaction time 6 h",45.0%
same,Decomposition efficiency of daidzin family in concentrated soybean protein,"pH2.7, heat treatment of enzyme: yes, reaction time 6 h",3.2%
same,Decomposition efficiency of daidzin family in roasted soy flour,"pH3, heat treatment of enzyme no, reaction time 0 h",3.5
same,Decomposition efficiency of daidzin family in roasted soy flour,"pH3, heat treatment of enzyme no, reaction time 1 h",54.0
same,Decomposition efficiency of daidzin family in roasted soy flour,"pH3, heat treatment of enzyme no, reaction time 3 h",60.4
same,Decomposition efficiency of daidzin family in roasted soy flour,"pH3, heat treatment of enzyme no, reaction time 6 h",59.3
same,Decomposition efficiency of daidzin family in roasted soy flour,"pH3, heat treatment of enzyme yes, reaction time 6 h",3.7
same,Decomposition efficiency of daidzin family in defatted soybean,"pH3.4, heat treatment of enzyme: no, reaction time 0 h",13.2%
same,Decomposition efficiency of daidzin family in defatted soybean,"pH3.4, heat treatment of enzyme: no, reaction time 1 h",60.6%
same,Decomposition efficiency of daidzin family in defatted soybean,"pH3.4, heat treatment of enzyme: no, reaction time 3 h",65.5%
same,Decomposition efficiency of daidzin family in defatted soybean,"pH3.4, heat treatment of enzyme: no, reaction time 6 h",71.0%
same,Decomposition efficiency of daidzin family in defatted soybean,"pH3.4, heat treatment of enzyme: yes, reaction time 6 h",15.1%
same,Decomposition efficiency of daidzin family in soymilk,"pH3.5, heat treatment of enzyme: no, reaction time 0 h",10.5%
same,Decomposition efficiency of daidzin family in soymilk,"pH3.5, heat treatment of enzyme: no, reaction time 1 h",64.4%
same,Decomposition efficiency of daidzin family in soymilk,"pH3.5, heat treatment of enzyme: no, reaction time 3 h",84.9%
same,Decomposition efficiency of daidzin family in soymilk,"pH3.5, heat treatment of enzyme: no, reaction time 6 h",92.6%
same,Decomposition efficiency of daidzin family in soymilk,"pH3.5, heat treatment of enzyme: yes, reaction time 6 h",10.6%
same,Decomposition efficiency of daidzin family in concentrated soybean protein,"pH3.7, heat treatment of enzyme: no, reaction time 0 h",3.0%
same,Decomposition efficiency of daidzin family in concentrated soybean protein,"pH3.7, heat treatment of enzyme: no, reaction time 1 h",58.4%
same,Decomposition efficiency of daidzin family in concentrated soybean protein,"pH3.7, heat treatment of enzyme: no, reaction time 3 h",67.0%
same,Decomposition efficiency of daidzin family in concentrated soybean protein,"pH3.7, heat treatment of enzyme: no, reaction time 6 h",74.8%
same,Decomposition efficiency of daidzin family in concentrated soybean protein,"pH3.7, heat treatment of enzyme: yes, reaction time 6 h",3.1%
same,Decomposition efficiency of daidzin family in roasted soy flour,"pH4, heat treatment of enzyme no, reaction time 0 h",3.5
same,Decomposition efficiency of daidzin family in roasted soy flour,"pH4, heat treatment of enzyme no, reaction time 1 h",65.6
same,Decomposition efficiency of daidzin family in roasted soy flour,"pH4, heat treatment of enzyme no, reaction time 3 h",79.5
same,Decomposition efficiency of daidzin family in roasted soy flour,"pH4, heat treatment of enzyme no, reaction time 6 h",88.9
same,Decomposition efficiency of daidzin family in roasted soy flour,"pH4, heat treatment of enzyme yes, reaction time 6 h",3.5
same,Decomposition efficiency of daidzin family in defatted soybean,[1],15.7%
same,Decomposition efficiency of daidzin family in soymilk,[1],9.0%
same,Decomposition efficiency of daidzin family in defatted soybean,[2],59.5%
same,Decomposition efficiency of daidzin family in soymilk,[2],52.6%
same,Decomposition efficiency of daidzin family in defatted soybean,[3],63.3%
same,Decomposition efficiency of daidzin family in soymilk,[3],66.1%
same,Decomposition efficiency of daidzin family in defatted soybean,[4],69.5%
same,Decomposition efficiency of daidzin family in soymilk,[4],79.7%
same,Decomposition efficiency of daidzin family in defatted soybean,[5],24.5%
same,Decomposition efficiency of daidzin family in soymilk,[5],9.1%

# Reference: patent US7118895B2, “Process for producing aglycon by using diglycosidase and flavor-improved food containing the aglycon and converting agent to be used in the process” (Amano Enzyme Inc., priority 2000, dated 2006)
